Measured values as given in US5554608A, “Inhibition of hair growth” (priority 1994, dated 1996).

Experiments:
[1] = test system: flank organ hair growth; experiment: Golden Syrian hamster assay (flank organ hair growth, topical); assay type: in vivo; details: for Hair Mass (mean ± SEM) Treated: treated flank organ; for % Inhibition (of hair growth): vs vehicle-treated side, mean ± SEM
Description: Male intact Golden Syrian hamsters are considered acceptable models for human beard hair growth in that they display oval shaped flank organs, one on each side, each about 8 mm. in major diameter, which grow thick black and coarse hair similar to human beard hair. These organs produce hair in response to androgens in the hamster. To evaluate the effectiveness of a particular PKC inhibitor, the flank organs of each of a group of hamsters are depilated by applying a thioglycolate based chemical depilatory (Surgex). To one organ of each animal 10-25 μl. of vehicle alone once a day is applied, while to the other organ of each animal an equal amount of vehicle containing a PKC inhibitor is applied. After thirteen applications (one application per day for five days a week), the flank organs are shaved and the amount of recovered hair (hair mass) from each is weighed. Percent-reduction of hair growth is calculated by subtracting the hair mass (mg) value of the test compound treated side from the hair mass value of the vehicle treated side; the delta value obtained is then divided by the hair mass value of the vehicle treated side, and the resultant number is multiplied by 100.
The above-described assay will be referred to herein as the "Golden Syrian hamster" assay.

[2] = test system: PKC; experiment: PKC activity assay in flank organ hair follicle homogenate (32P phosphorylation of acetylated-myelin basic protein); assay type: biochemical, Golden Syrian hamster
Description: PKC activity was assayed in hair follicles isolated from flank organs using a commercial assay kit obtained from GIBCO BRL (Gaithersburg, Md.). The assay is based on the phosphorylation (incorporation of ^32 -P into) of acetylated-myelin basic protein. After isolation, the flank organ hair follicles were washed in phosphate-buffered saline and homogenized in a buffer containing 20 mM Tris, pH 7.5, 0.5 mM EDTA, 0.5% Triton X-100, 10 mM β-mercaptoethanol, and 25 μg/each of the protease inhibitors aprotinin and leupeptin. The hair follicle homogenate was added to the PKC reaction mixture at a final concentration of 10-20 μg/assay. The assay also included buffer, H2 O, phospholipid. The assay was performed in the presence or absence of select PKC inhibitors. The reaction mixture volume was 50 μl, the ^32 P-ATP substrate was added in a volume of 10 μl. The reaction proceeded at 32° for 15 minutes, whereupon a 16.3 μL aliquot was removed from the reaction mixture and spotted onto a paper filter. Filters were washed twice in 1% phosphoric acid with gentle shaking for 5 minutes. Filters were then washed twice in H2 O and placed in scintillation vials. ^32 P-Incorporation, a measure of the enzyme activity, was determined using standard liquid scintillation techniques.

[3] = dose 10% in vehicle A, thirteen applications, pH differs per compound (4.0-8.5)
[4] = dose 7.5% in vehicle B, pH 7.5, thirteen applications
[5] = dose 10% in vehicle C, pH 5.5, thirteen applications

SMILES: CCCCCCCCCCCCCCCC(=O)OC[C@H](O)[C@H]1OC(=O)C(O)=C1O [L-Ascorbic acid 6-palmitate]
- Hair Mass (mean ± SEM) Treated [1, 3]: 1.48 ± .14 mg
- % Inhibition (of hair growth) [1, 3]: 46 ± 5%

SMILES: CSc1ccc2c(c1)N(CCC1CCCCN1C)c1ccccc1S2 (stereo not drawn) [Thioridazine]
- Hair Mass (mean ± SEM) Treated [1, 3]: 0.74 ± .07 mg
- % Inhibition (of hair growth) [1, 3]: 68 ± 4%

SMILES: CN(C)CCCN1c2ccccc2CCc2ccccc21 [Imipramine]
- Hair Mass (mean ± SEM) Treated [1, 3]: 0.94 ± .18 mg
- % Inhibition (of hair growth) [1, 3]: 38 ± 5%

SMILES: CN1CCN(CCCN2c3ccccc3Sc3ccc(C(F)(F)F)cc32)CC1 [Trifluoperizine]
- Hair Mass (mean ± SEM) Treated [1, 3]: 1.03 ± .16 mg
- % Inhibition (of hair growth) [1, 3]: 56 ± 6%
- inhibition of PKC activity ([2]; at 500 μM): 42%

SMILES: Cc1ccc(N(CC2=NCCN2)c2cccc(O)c2)cc1 [Phentolamine]
- Hair Mass (mean ± SEM) Treated [1, 3]: 1.61 ± .22 mg
- % Inhibition (of hair growth) [1, 3]: 19 ± 9%

SMILES: CC1(C)[C@@H](O[C@H]2O[C@H](C(=O)O)[C@@H](O)[C@H](O)[C@H]2O[C@@H]2O[C@H](C(=O)O)[C@@H](O)[C@H](O)[C@H]2O)CC[C@]2(C)[C@H]3C(=O)C=C4[C@@H]5C[C@@](C)(C(=O)O)CC[C@]5(C)CC[C@@]4(C)[C@]3(C)CC[C@@H]12 [Glycyrrhetinic acid glycoside]
- Hair Mass (mean ± SEM) Treated [1, 3]: 0.94 ± .17 mg
- % Inhibition (of hair growth) [1, 3]: 46 ± 10%
- inhibition of PKC activity ([2]; at 200 μM): ~100%

SMILES: COc1ccc(CCN(C)CCCC(C#N)(c2ccc(OC)c(OC)c2)C(C)C)cc1OC (stereo not drawn) [Verapamil]
- Hair Mass (mean ± SEM) Treated [1, 3]: 0.43 ± .05 mg
- % Inhibition (of hair growth) [1, 3]: 69 ± 5%

SMILES: CC1(C)[C@@H](O)CC[C@]2(C)[C@H]3C(=O)C=C4[C@@H]5C[C@@](C)(C(=O)O)CC[C@]5(C)CC[C@@]4(C)[C@]3(C)CC[C@@H]12 [18β-Glycyrrhetinic acid]
- Hair Mass (mean ± SEM) Treated [1, 4]: 1.07 ± .10 mg
- % Inhibition (of hair growth) [1, 4]: 44 ± 6%
- inhibition of PKC activity ([2]; at 500 μM): 52%

SMILES: COc1cc(/C=C/C(=O)CC(=O)/C=C/c2ccc(O)c(OC)c2)ccc1O [Curcumin]
- Hair Mass (mean ± SEM) Treated [1, 5]: 0.55 ± .11 mg
- % Inhibition (of hair growth) [1, 5]: 68 ± 5%

SMILES: CC1CNCCN1S(=O)(=O)c1cccc2cnccc12 (stereo not drawn) [H-7, 1(5-isoquinolinylsulfonyl)-2-methylpiperazine]
- Hair Mass (mean ± SEM) Treated [1, 3]: 0.81 ± .08 mg
- % Inhibition (of hair growth) [1, 3]: 54 ± 3%
- inhibition of PKC activity ([2]; at 200 μM): 86%
